Measurements taken from PMC11433937, “Privileged Scaffold Hybridization in the Design of Carbonic Anhydrase Inhibitors” (Molecules, 2024).

Tests used:
hCA I = hCA I (Homo sapiens, UniProt P00915); assay: Stopped-flow CA-catalyzed CO2 hydration inhibition assay
hCA II = hCA II (Homo sapiens, UniProt P00918); assay: as above
hCA IX [1] = biological target: T1, hCA IX (Homo sapiens, UniProt Q16790); assay: as above
hCA XII [2] = biological target: T2, hCA XII (Homo sapiens, UniProt O43570); assay: as above
hCA IX [3] = biological target: T1, hCA IX; parameters: method as in PMID 27775452; conditions: previously synthesized compound; cited from earlier work
hCA XII [4] = biological target: T2, hCA XII; parameters: method as in PMID 27775452; conditions: previously synthesized compound; cited from earlier work

T2 sequence (O43570 30-289 limits assumed): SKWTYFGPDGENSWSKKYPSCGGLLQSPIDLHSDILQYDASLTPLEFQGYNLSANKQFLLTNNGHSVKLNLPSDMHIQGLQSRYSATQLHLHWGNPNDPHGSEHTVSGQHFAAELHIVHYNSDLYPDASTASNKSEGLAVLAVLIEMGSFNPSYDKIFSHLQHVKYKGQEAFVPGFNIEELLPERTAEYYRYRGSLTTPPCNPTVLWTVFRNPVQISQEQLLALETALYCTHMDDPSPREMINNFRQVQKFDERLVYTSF
hCA I, sequence (P00915 whole entry): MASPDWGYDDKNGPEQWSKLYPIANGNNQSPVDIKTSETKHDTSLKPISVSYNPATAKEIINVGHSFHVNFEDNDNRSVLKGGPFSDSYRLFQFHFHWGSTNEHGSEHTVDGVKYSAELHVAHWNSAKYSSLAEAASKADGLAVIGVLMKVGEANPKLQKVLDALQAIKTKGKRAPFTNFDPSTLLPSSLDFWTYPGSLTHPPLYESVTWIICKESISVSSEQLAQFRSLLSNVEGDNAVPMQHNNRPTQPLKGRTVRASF

melting point | Ki (hCA I) | Ki (hCA II) | Ki (hCA IX [1]) | Ki (hCA XII [2]) | selectivity index SI hCA II/hCA IX (hCA IX [1]; ratio of Ki hCA II to Ki hCA IX) | selectivity index SI hCA II/hCA XII (hCA XII [2]; ratio of Ki hCA II to Ki hCA XII) | SMILES | inhibitory activity against hCA IX (hCA IX [3]) | inhibitory activity against hCA XII (hCA XII [4])
314.2 to 316.1 °C | 4.59 µM | 0.246 µM | 0.0994 µM | 0.0611 µM |  |  | NS(=O)(=O)c1ccc(NN2C(=O)/C(=C3/C(=O)Nc4ccc(Cl)cc43)SC2=Nc2ccccc2)cc1 [5a, 4-((5-((Z)-5-chloro-2-oxoindolin-3-ylidene)-4-oxo-2-(phenylimino)thiazolidin-3-yl)amino)benzenesulfonamide] |  | 
338.5 to 340 °C | 6.03 µM | 0.159 µM | 0.0346 µM | 0.0075 µM |  |  | NS(=O)(=O)c1ccc(NN2C(=O)/C(=C3/C(=O)Nc4ccc([N+](=O)[O-])cc43)SC2=Nc2ccccc2)cc1 [5b, 4-((5-((Z)-5-nitro-2-oxoindolin-3-ylidene)-4-oxo-2-(phenylimino)thiazolidin-3-yl)amino)benzenesulfonamide] |  | 
297.5 to 299.8 °C | 5.88 µM | 0.0069 µM | 0.0231 µM | 0.0218 µM |  |  | NS(=O)(=O)c1ccc(NN2C(=O)/C(=C3/C(=O)Nc4ccc(F)cc43)SC2=Nc2ccccc2)cc1 [5c, 4-((5-((Z)-5-fluoro-2-oxoindolin-3-ylidene)-4-oxo-2-(phenylimino)thiazolidin-3-yl)amino)benzenesulfonamide] |  | 
331.4 to 332.7 °C | > 10 µM | 0.104 µM | 0.0874 µM | 0.193 µM |  |  | NS(=O)(=O)c1ccc(NN2C(=O)/C(=C3/C(=O)Nc4ccc(Br)cc43)SC2=Nc2ccccc2)cc1 [5d, 4-((5-((Z)-5-bromo-2-oxoindolin-3-ylidene)-4-oxo-2-(phenylimino)thiazolidin-3-yl)amino)benzenesulfonamide] |  | 
328.8 to 330.1 °C | 9.06 µM | 0.0096 µM | 0.005 µM | 0.0537 µM |  |  | COc1ccc2c(c1)/C(=C1/SC(=Nc3ccccc3)N(Nc3ccc(S(N)(=O)=O)cc3)C1=O)C(=O)N2 [5e, 4-((5-((Z)-5-methoxy-2-oxoindolin-3-ylidene)-4-oxo-2-(phenylimino)thiazolidin-3-yl)amino)benzenesulfonamide] |  | 
333.9 to 334.6 °C | > 10 µM | 0.0708 µM | 0.0149 µM | 0.0006 µM | 4.75 | 118 | Cc1ccc2c(c1)/C(=C1/SC(=Nc3ccccc3)N(Nc3ccc(S(N)(=O)=O)cc3)C1=O)C(=O)N2 [5f, 4-((5-((Z)-5-methyl-2-oxoindolin-3-ylidene)-4-oxo-2-(phenylimino)thiazolidin-3-yl)amino)benzenesulfonamide] |  | 
 | 5.28 µM | 0.0096 µM | 0.0025 µM | 0.0168 µM |  |  | NS(=O)(=O)c1ccc(NN2C(=O)/C(=C3/C(=O)Nc4ccccc43)SC2=Nc2ccccc2)cc1 [5g, 4-((4-oxo-5-((Z)-2-oxoindolin-3-ylidene)-2-(phenylimino)thiazolidin-3-yl)amino)benzenesulfonamide] |  | 
336.1 to 336.6 °C | 6.62 µM | 0.0041 µM | 0.0127 µM | 0.0013 µM |  |  | NS(=O)(=O)c1ccc(NN2C(=O)/C(=C3/C(=O)Nc4c(F)cccc43)SC2=Nc2ccccc2)cc1 [5h, 4-((5-((Z)-7-fluoro-2-oxoindolin-3-ylidene)-4-oxo-2-(phenylimino)thiazolidin-3-yl)amino)benzenesulfonamide] |  | 
344.9 to 346 °C | 7.69 µM | 0.0178 µM | 0.0503 µM | 0.094 µM |  |  | NS(=O)(=O)c1ccc(NN2C(=O)/C(=C3/C(=O)Nc4c(Br)cccc43)SC2=Nc2ccccc2)cc1 [5i, 4-((5-((Z)-7-bromo-2-oxoindolin-3-ylidene)-4-oxo-2-(phenylimino)thiazolidin-3-yl)amino)benzenesulfonamide] |  | 
 |  |  |  |  |  |  | CN1C(=O)/C(=C2/C(=O)Nc3c(F)cccc32)S/C1=N\c1ccc(S(N)(=O)=O)cc1 [EMAC10020m] | in the nanomolar range | in the nanomolar range
